Data published in patent US20250221410A1, “SUBSTITUTED 2-C-AZINES AND SALTS THEREOF, AND USE THEREOF AS HERBICIDAL ACTIVE SUBSTANCES” (BAYER AKTIENGESELLSCHAFT, priority 2022, published 2025).

Columns and labels:
Format in all cases: in vivo
[1] = tested on: ABUTH: Abutilon theophrasti; assay: Post-emergence herbicidal efficacy at 1280 g/ha, ABUTH; conditions: rated visually after about 3 weeks vs untreated controls, 100% = plants have died, 0% = like control plants
Outline: (§1)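 Read-out is visual percent activity relative to untreated controls (100% = plants died, 0% = no effect), scored about 3 weeks after treatment. Application was post-emergence at the one-leaf stage in the greenhouse, as WP or EC in water with 0.5% additive at 600 L/ha.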

[2] = tested on: AMARE: Amaranthus retroflexus; assay: Post-emergence herbicidal efficacy at 1280 g/ha, AMARE; conditions: rated visually after about 3 weeks vs untreated controls, 100% = plants have died, 0% = like control plants
Outline: as §1

[3] = tested on: ECHCG: Echinochloa crus-galli; assay: Post-emergence herbicidal efficacy at 1280 g/ha, ECHCG; conditions: rated visually after about 3 weeks vs untreated controls, 100% = plants have died, 0% = like control plants
Outline: as §1

[4] = tested on: KCHSC: Kochia scoparia; assay: Post-emergence herbicidal efficacy at 1280 g/ha, KCHSC; conditions: visual rating about 3 weeks after treatment vs untreated controls
Outline: as §1

[5] = tested on: MATIN: Matricaria inodora; assay: Post-emergence herbicidal efficacy at 1280 g/ha, MATIN; conditions: visual rating about 3 weeks after treatment vs untreated controls
Method: Seeds of mono- and dicotyledonous weed plants were placed in plastic pots in sandy loam soil (doubly sown with in each case one species of mono- or dicotyledonous weed plants per pot), covered with soil and cultivated in a greenhouse under controlled growth conditions. 2 to 3 weeks after sowing, the test plants were treated at the one-leaf stage. The compounds of the invention, formulated in the form of wettable powders (WP) or as emulsion concentrates (EC), were applied to the green parts of the plants as aqueous suspension or emulsion with addition of 0.5% additive at a water application rate equivalent to 600 litres per hectare. After the test plants had been kept in the greenhouse under optimum growth conditions for about 3 weeks, the activity of the preparations was rated visually in comparison to untreated controls. For example, 100% activity=the plants have died, 0% activity=like control plants. Tables A1 to A12 below show the effects of selected compounds of the general formula (I) according to Table 1 on various harmful plants and at an application rate corresponding to 1280 g/ha, which were obtained by the trial procedure specified above.

[6] = tested on: POAAN: Poa annua; assay: Post-emergence herbicidal efficacy at 1280 g/ha, POAAN; conditions: visual rating about 3 weeks after treatment vs untreated controls
Outline: as §1

[7] = tested on: SETVI: Setaria viridis; assay: Post-emergence herbicidal efficacy at 1280 g/ha, SETVI; conditions: visual rating about 3 weeks after treatment vs untreated controls
Outline: as §1

[8] = tested on: STEME: Stellaria media; assay: Post-emergence herbicidal efficacy at 1280 g/ha, STEME; conditions: visual rating about 3 weeks after treatment vs untreated controls
Outline: as §1

[9] = tested on: VERPE: Veronica persica; assay: Post-emergence herbicidal efficacy at 1280 g/ha, VERPE; conditions: visual rating about 3 weeks after treatment vs untreated controls
Outline: as §1

[10] = tested on: VERPE: Veronica persica; assay: Post-emergence herbicidal efficacy at 80 g/ha, VERPE; conditions: visual rating about 3 weeks after treatment vs untreated controls
Outline: (§2)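 Activity is a visual score relative to untreated plants, taken about 3 weeks after treatment, where 100% means plant death and 0% means no difference from control. Weeds in sandy loam were sprayed at the one-leaf stage with an aqueous WP or EC preparation carrying 0.5% additive at 600 l/ha.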

[11] = tested on: VIOTR: Viola tricolor; assay: Post-emergence herbicidal efficacy at 80 g/ha, VIOTR; conditions: visual rating about 3 weeks after treatment vs untreated controls
Method: Seeds of monocotyledonous and dicotyledonous weeds and crop plants were placed in sandy loam in plastic or organic planting pots, covered with soil and cultivated in a greenhouse under controlled growth conditions. 2 to 3 weeks after sowing, the test plants were treated at the one-leaf stage. The compounds of the invention, formulated in the form of wettable powders (WP) or as emulsion concentrates (EC), were then sprayed onto the green parts of the plants as aqueous suspension or emulsion with addition of 0.5% additive at a water application rate of 600 l/ha (converted). After the test plants had been kept in the greenhouse under optimum growth conditions for about 3 weeks, the activity of the preparations was rated visually in comparison to untreated controls. For example, 100% activity=the plants have died, 0% activity=like control plants. Tables B1 to B10 below show the effects of selected compounds of the general formula (I) according to Table 1 on various harmful plants and an application rate corresponding to 80 g/ha, which were obtained by the experimental procedure mentioned above.

[12] = tested on: ABUTH: Abutilon theophrasti; assay: Pre-emergence herbicide efficacy at 1280 g/ha, ABUTH; conditions: visual scoring after about 3 weeks vs untreated controls
Outline: (§3)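 Pre-emergence pot test in sandy loam: WP or EC formulations sprayed onto covering soil after sowing, as aqueous suspension/emulsion with 0.5% additive at 600 L/ha water. Plants grown in greenhouse; after about 3 weeks, efficacy scored visually as % versus untreated controls (100% = dead, 0% = like control).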

[13] = tested on: ALOMY: Alopecurus myosuroides; assay: Pre-emergence herbicide efficacy at 1280 g/ha, ALOMY; conditions: visual scoring after about 3 weeks vs untreated controls
Source text: (§4) Seeds of mono- and dicotyledonous weed plants were placed in plastic pots in sandy loam soil (doubly sown with one species each of mono- or dicotyledonous weed plants per pot) and covered with soil. The compounds of the invention, formulated in the form of wettable powders (WP) or as emulsion concentrates (EC), were then applied to the surface of the covering soil as aqueous suspension or emulsion with addition of 0.5% additive at a water application rate of 600 litres per hectare (converted). After the treatment, the pots were placed in a greenhouse and kept under good growth conditions for the test plants. After about 3 weeks, the efficacy of the preparations was scored visually in comparison with untreated controls as percentages. For example, 100% activity=the plants have died, 0% activity=like control plants. Tables C1 to C12 below show the effects of selected compounds of the general formula (I) according to Table 1 on various harmful plants and at an application rate corresponding to 1280 g/ha, which were obtained by the trial procedure specified above.

[14] = tested on: AMARE: Amaranthus retroflexus; assay: Pre-emergence herbicide efficacy at 1280 g/ha, AMARE; conditions: visual scoring after about 3 weeks vs untreated controls
Outline: as §3

[15] = tested on: DIGSA: Digitaria sanguinalis; assay: Pre-emergence herbicide efficacy at 1280 g/ha, DIGSA; conditions: visual scoring after about 3 weeks vs untreated controls
Outline: as §3

[16] = tested on: ECHCG: Echinochloa crus-galli; assay: Pre-emergence herbicide efficacy at 1280 g/ha, ECHCG; conditions: visual scoring after about 3 weeks vs untreated controls
Outline: as §3

[17] = tested on: KCHSC: Kochia scoparia; assay: Pre-emergence herbicide efficacy at 1280 g/ha, KCHSC; conditions: visual scoring after about 3 weeks vs untreated controls
Outline: as §3

[18] = tested on: LOLRI: Lolium rigidum; assay: Pre-emergence herbicide efficacy at 1280 g/ha, LOLRI; conditions: visual scoring after about 3 weeks vs untreated controls
Source text: as §4

[19] = tested on: MATIN: Matricaria inodora; assay: Pre-emergence herbicide efficacy at 1280 g/ha, MATIN; conditions: visual scoring after about 3 weeks vs untreated controls
Outline: as §3

[20] = tested on: POAAN: Poa annua; assay: Pre-emergence herbicide efficacy at 1280 g/ha, POAAN; conditions: visual scoring after about 3 weeks vs untreated controls
Outline: as §3

[21] = tested on: SETVI: Setaria viridis; assay: Pre-emergence herbicide efficacy at 1280 g/ha, SETVI; conditions: visual scoring vs untreated controls
Outline: as §3

[22] = tested on: STEME: Stellaria media; assay: Pre-emergence herbicide efficacy at 1280 g/ha, STEME; conditions: visual scoring vs untreated controls
Outline: as §3

[23] = tested on: VERPE: Veronica persica; assay: Pre-emergence herbicide efficacy at 1280 g/ha, VERPE; conditions: visual scoring vs untreated controls
Outline: as §3

[24] = tested on: ABUTH: Abutilon theophrasti; assay: Pre-emergence herbicide efficacy at 80 g/ha, ABUTH; conditions: scored visually after about 3 weeks
Source text: (§5) Seeds of monocotyledonous and dicotyledonous weed plants and crop plants were placed in plastic or organic planting pots and covered with soil. The compounds of the invention, formulated in the form of wettable powders (WP) or as emulsion concentrates (EC), were then applied to the surface of the covering soil as aqueous suspension or emulsion with addition of 0.5% additive at a water application rate equivalent to 600 l/ha. After the treatment, the pots were placed in a greenhouse and kept under good growth conditions for the test plants. After about 3 weeks, the efficacy of the preparations was scored visually in comparison with untreated controls as percentages. For example, 100% activity=the plants have died, 0% activity=like control plants. Tables D1 to D12 below show the effects of selected compounds of the general formula (I) according to Table 1 on various harmful plants and an application rate corresponding to 80 g/ha, which were obtained by the experimental procedure mentioned above.

[25] = tested on: AMARE: Amaranthus retroflexus; assay: Pre-emergence herbicide efficacy at 80 g/ha, AMARE; conditions: scored visually after about 3 weeks
Outline: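 Seeds sown in pots and covered with soil received WP or EC formulations sprayed onto the soil surface at 80 g/ha, 600 l/ha water, with 0.5% additive. After about 3 weeks in greenhouse, efficacy was visually scored as percent versus untreated controls (100% = plants dead, 0% = like control).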

[26] = tested on: DIGSA: Digitaria sanguinalis; assay: Pre-emergence herbicide efficacy at 80 g/ha, DIGSA; conditions: scored visually after about 3 weeks
Source text: as §5

[27] = tested on: KCHSC: Kochia scoparia; assay: Pre-emergence herbicide efficacy at 80 g/ha, KCHSC; conditions: scored visually after about 3 weeks
Source text: as §5

[28] = tested on: MATIN: Matricaria inodora; assay: Pre-emergence herbicide efficacy at 80 g/ha, MATIN; conditions: scored visually after about 3 weeks
Source text: as §5

[29] = tested on: SETVI: Setaria viridis; assay: Pre-emergence herbicide efficacy at 80 g/ha, SETVI; conditions: scored visually after about 3 weeks
Source text: as §5

[30] = tested on: VERPE: Veronica persica; assay: Pre-emergence herbicide efficacy at 80 g/ha, VERPE; conditions: scored visually after about 3 weeks
Source text: as §5

[31] = tested on: VIOTR: Viola tricolor; assay: Pre-emergence herbicide efficacy at 80 g/ha, VIOTR; conditions: scored visually after about 3 weeks
Source text: as §5

[32] = tested on: DIGSA: Digitaria sanguinalis; assay: Post-emergence herbicidal efficacy at 1280 g/ha, DIGSA; conditions: rated visually after about 3 weeks vs untreated controls, 100% = plants have died, 0% = like control plants
Outline: as §1

[33] = tested on: AMARE: Amaranthus retroflexus; assay: Post-emergence herbicidal efficacy at 80 g/ha, AMARE; conditions: visual rating about 3 weeks after treatment vs untreated controls
Outline: as §2

[34] = tested on: POLCO; assay: Pre-emergence herbicide efficacy at 80 g/ha, POLCO; conditions: Polygonum convolvulus, scored visually after about 3 weeks
Source text: as §5

Cc1cccc(Oc2ncc(F)cn2)c1Cc1ncc(Cl)cn1 [Example 1-65]
100%: Post-emergence efficacy at 1280 g/ha against ABUTH in % [1] | Post-emergence efficacy at 1280 g/ha against AMARE in % [2] | Post-emergence efficacy against KCHSC [4] | Post-emergence efficacy against MATIN [5] | Post-emergence efficacy against POAAN [6] | Post-emergence efficacy against STEME [8] | Post-emergence efficacy against VERPE [9] | Post-emergence efficacy against VIOTR [11] | Pre-emergence efficacy against ABUTH [12] | Pre-emergence efficacy against AMARE [14] | Pre-emergence efficacy against DIGSA [15] | Pre-emergence efficacy against ECHCG [16] | Pre-emergence efficacy against KCHSC [17] | Pre-emergence efficacy against LOLRI [18] | Pre-emergence efficacy against MATIN [19] | Pre-emergence efficacy against POAAN [20] | Pre-emergence efficacy against SETVI in % [21] | Pre-emergence efficacy against STEME in % [22] | Pre-emergence efficacy against VERPE in % [23] | Pre-emergence efficacy against AMARE in % [25] | Pre-emergence efficacy against KCHSC in % [27] | Pre-emergence efficacy against MATIN in % [28] | Pre-emergence efficacy against VERPE in % [30] | Pre-emergence efficacy against VIOTR in % [31]
90%: Post-emergence efficacy at 1280 g/ha against ECHCG in % [3] | Post-emergence efficacy against SETVI [7] | Post-emergence efficacy against VERPE [10] | Pre-emergence efficacy against ALOMY [13] | Pre-emergence efficacy against ABUTH in % [24] | Pre-emergence efficacy against DIGSA in % [26] | Pre-emergence efficacy against SETVI in % [29]

N#Cc1cccc(Cc2ncc(F)cn2)c1-n1cc(C(F)(F)F)cn1 [Example 1-131]
100%: Post-emergence efficacy at 1280 g/ha against ABUTH in % [1] | Post-emergence efficacy at 1280 g/ha against AMARE in % [2] | Post-emergence efficacy at 1280 g/ha against ECHCG in % [3] | Post-emergence efficacy against KCHSC [4] | Post-emergence efficacy against POAAN [6] | Post-emergence efficacy against STEME [8] | Post-emergence efficacy against VERPE [9] | Post-emergence efficacy against AMARE [33] | Pre-emergence efficacy against ABUTH [12] | Pre-emergence efficacy against AMARE [14] | Pre-emergence efficacy against DIGSA [15] | Pre-emergence efficacy against ECHCG [16] | Pre-emergence efficacy against KCHSC [17] | Pre-emergence efficacy against MATIN [19] | Pre-emergence efficacy against SETVI in % [21] | Pre-emergence efficacy against STEME in % [22] | Pre-emergence efficacy against VERPE in % [23] | Pre-emergence efficacy against AMARE in % [25]
80%: Pre-emergence efficacy against POLCO in % [34]
90%: Post-emergence efficacy at 1280 g/ha against DIGSA in % [32] | Post-emergence efficacy against MATIN [5] | Post-emergence efficacy against SETVI [7] | Post-emergence efficacy against VIOTR [11] | Pre-emergence efficacy against POAAN [20] | Pre-emergence efficacy against VIOTR in % [31]
